According to publication PMC11435058, “Synthesis of New Thiazole-Privileged Chalcones as Tubulin Polymerization Inhibitors with Potential Anticancer Activities” (Pharmaceuticals, 2024):

Experiments:
OVCAR-3 = assay: cells; settings: Homo sapiens, OVCAR-3, 48 h, read-out: Growth Percentage
HL-60(TB) = assay: NCI-60 anticancer screen (SRB; single dose and five doses); settings: Homo sapiens, HL-60, 48 h, read-out: Growth Percentage
K-562 = assay: as above; settings: Homo sapiens, K562, 48 h, read-out: Growth Percentage
SR = assay: as above; settings: Homo sapiens, 48 h, read-out: Growth Percentage
EKVX = assay: as above; settings: Homo sapiens, 48 h, read-out: Growth Percentage
HT29 = assay: as above; settings: Homo sapiens, HT-29, 48 h, read-out: Growth Percentage
KM12 = assay: as above; settings: Homo sapiens, KM12, 48 h, read-out: Growth Percentage
SW-620 = assay: as above; settings: Homo sapiens, SW-620, 48 h, read-out: Growth Percentage
SF-268 = assay: as above; settings: Homo sapiens, SF-268, 48 h, read-out: Growth Percentage
SNB-75 = assay: as above; settings: Homo sapiens, SNB-75, 48 h, read-out: Growth Percentage
U251 = assay: as above; settings: Homo sapiens, U-251, 48 h, read-out: Growth Percentage
LOX IMVI = assay: as above; settings: Homo sapiens, 48 h, read-out: Growth Percentage
MDA-MB-435 = assay: as above; settings: Homo sapiens, MDA-MB-435, 48 h, read-out: Growth Percentage
SK-MEL-2 = assay: as above; settings: Homo sapiens, SK-MEL-2, 48 h, read-out: Growth Percentage
SK-MEL-5 = assay: as above; settings: Homo sapiens, SK-MEL-5, 48 h, read-out: Growth Percentage
UACC-257 = assay: as above; settings: Homo sapiens, UACC-257, 48 h, read-out: Growth Percentage
UACC-62 = assay: as above; settings: Homo sapiens, UACC-62, 48 h, read-out: Growth Percentage
IGROV1 = assay: as above; settings: Homo sapiens, IGROV-1, 48 h, read-out: Growth Percentage
OVCAR-4 = assay: as above; settings: Homo sapiens, OVCAR-4, 48 h, read-out: Growth Percentage
OVCAR-5 = assay: as above; settings: Homo sapiens, OVCAR-5, 48 h, read-out: Growth Percentage
786-0 = assay: as above; settings: Homo sapiens, 786-0, 48 h, read-out: Growth Percentage
CAKI-1 = assay: as above; settings: Homo sapiens, CAKI-1, 48 h, read-out: Growth Percentage
SN12C = assay: as above; settings: Homo sapiens, 48 h, read-out: Growth Percentage
UO-31 = assay: as above; settings: Homo sapiens, UO-31, 48 h, read-out: Growth Percentage
DU-145 = assay: as above; settings: Homo sapiens, DU-145, 48 h, read-out: Growth Percentage
MCF7 = assay: as above; settings: Homo sapiens, MCF7, 48 h, read-out: Growth Percentage
MDA-MB-231/ATCC = assay: as above; settings: Homo sapiens, MDA-MB-231, 48 h, read-out: Growth Percentage
HS 578T = assay: as above; settings: Homo sapiens, 48 h, read-out: Growth Percentage
T-47D = assay: as above; settings: Homo sapiens, T47D, 48 h, read-out: Growth Percentage

Structure (SMILES) | activity at 10 µM (OVCAR-3) [%] | activity at 10 µM (HL-60(TB)) [%] | activity at 10 µM (K-562) [%] | activity at 10 µM (EKVX) [%] | activity at 10 µM (HT29) [%] | activity at 10 µM (KM12) [%] | activity at 10 µM (SW-620) [%] | activity at 10 µM (SF-268) [%] | activity at 10 µM (U251) [%] | activity at 10 µM (LOX IMVI) [%] | activity at 10 µM (MDA-MB-435) [%] | activity at 10 µM (SK-MEL-2) [%] | activity at 10 µM (SK-MEL-5) [%] | activity at 10 µM (UACC-257) [%] | activity at 10 µM (UACC-62) [%] | activity at 10 µM (OVCAR-4) [%] | activity at 10 µM (OVCAR-5) [%] | activity at 10 µM (786-0) [%] | activity at 10 µM (CAKI-1) [%] | activity at 10 µM (SN12C) [%] | also measured
Cc1[nH]c(=S)sc1C(=O)/C=C/c1ccccc1 [2a, (E)-1-(4-Methyl-2-Thioxo-2,3-Dihydrothiazol-5-yl)-3-Phenylprop-2-En-1-One] | 42.7 | 49.6 | 51 | 73.1 | 99.7 | 29 | 69.1 | 69.8 | 56.9 | 31.1 | 50.1 | 68.2 | 68.8 | 76.2 | 65.3 | 76.4 | 129 | 68.1 | 52.5 | 66.1 | activity at 10 µM (SR): 32.4%; activity at 10 µM (SNB-75): 92.7%; activity at 10 µM (IGROV1): 81.8%; activity at 10 µM (UO-31): 39.3%; activity at 10 µM (DU-145): 27.9%; activity at 10 µM (MCF7): 19.8%; activity at 10 µM (MDA-MB-231/ATCC): 70%; activity at 10 µM (HS 578T): 90.1%
Cc1[nH]c(=S)sc1C(=O)/C=C/c1cccc(F)c1 [2b, (E)-3-(3-Fluorophenyl)-1-(4-Methyl-2-Thioxo-2,3-Dihydrothiazol-5-yl)Prop-2-En-1-One] | -1.17 | 12 | 22.8 | 68.6 | 47.1 | 11.9 | 20.9 | 82.3 | 17.6 | 13.8 | 35.9 | 81.2 | 62.2 | 83.7 | 58.3 | 79.5 | 88.2 | 46.9 | 37.7 | 32.1 | activity at 10 µM (SR): 6.82%; activity at 10 µM (IGROV1): 32.3%; activity at 10 µM (UO-31): 44.3%; activity at 10 µM (DU-145): 12.9%; activity at 10 µM (MCF7): 7.97%; activity at 10 µM (MDA-MB-231/ATCC): 67.4%; activity at 10 µM (HS 578T): 79.8%; activity at 10 µM (T-47D): 0.69%
Cc1[nH]c(=S)sc1C(=O)/C=C/c1ccccc1Cl [2d, (E)-3-(2-Chlorophenyl)-1-(4-Methyl-2-Thioxo-2,3-Dihydrothiazol-5-yl)Prop-2-En-1-One] | 77.4 | 53 | 47.4 | 35.6 | 122 | 63.8 | 82 | 80.4 | 63.3 | 57.5 | 80.8 | 84.8 | 68.5 | 87.2 | 72.9 | 90.3 | 116 | 93.1 | 68.5 | 80 | activity at 10 µM (SR): 14.1%; activity at 10 µM (IGROV1): 91.9%; activity at 10 µM (UO-31): 73.7%; activity at 10 µM (DU-145): 76%; activity at 10 µM (MCF7): 28.9%; activity at 10 µM (MDA-MB-231/ATCC): 101%; activity at 10 µM (HS 578T): 92.8%; activity at 10 µM (T-47D): 47.3%
COc1ccc(/C=C/C(=O)c2sc(=S)[nH]c2C)c(OC)c1 [2n, (E)-3-(2,4-Dimethoxyphenyl)-1-(4-Methyl-2-Thioxo-2,3-Dihydrothiazol-5-yl)Prop-2-En-1-One] | 91.2 | 55.8 | 48.9 | 56.2 | 115 | 73.4 | 84.9 | 89.7 | 68.6 | 57.8 | 84.7 | 64.7 | 37.8 | 84.4 | 65.2 | 52 | 120 | 85.9 | 82.8 | 81 | activity at 10 µM (DU-145): 86.9%; activity at 10 µM (MCF7): 46%; activity at 10 µM (MDA-MB-231/ATCC): 98.7%; activity at 10 µM (HS 578T): 89.5%; activity at 10 µM (T-47D): 30.9%
